Entries after “also recorded” stand apart in the source; their conditions may differ.
Assays:
Type in all cases: in vivo, human
[1] = tested on: patients on chronic methadone therapy for pain; test: VAS pain and clinical comments in pain patients in clinical trial, with and without NAC
Procedure: (§1) 6 patients who have been on chronic methadone therapy for pain treatment and who are also taking NAC (600 mg/day) were studied. Patients were taking a range of methadone doses (30-160 mg/day).
(§2) This is a descriptive case study of 6 patients. A blood sample was obtained and used to measure serum methadone levels was obtained on methadone/NAC therapy. NAC was supplied by the investigator from assayed commercially available supply and pill counts were done to assure patient compliance. The patients were on the same methadone dose for over seven days; this ensures steady state levels of methadone had been achieved. The patients were then be asked to stop taking NAC for 7 days and were asked to return to the clinic for a second blood draw that measured serum methadone levels. Blood was collected in the offices of BAA. Three additional patients were studied, after the results from sera of the initial patients were assayed; these patients had baseline pain and fatigue assessments with the Piper Survey and were subsequently treated with NAC, serum determinations were sent, but have not as yet been completed. Thus patients on methadone were studied with NAC withdrawal (First Group) and NAC added to treatment (second group). The medical chart was reviewed for current medications, including over the counter medications, supplements, and herbal preparations; health conditions and available laboratory evaluations of electrolytes. The patient's age and gender was recorded.
(§3) BAA offices: A 5 ml blood sample will be obtained on methadone/NAC. Blood was drawn prior to a normally timed dose of methadone. The patient was instructed to discontinue taking NAC and returned in 7 days, at the same time, for a blood draw. This was also drawn prior to a normally timed dose of methadone. Patients completed a Piper survey for fatigue and distress on each occasion prior to the blood draw. The Piper score reflects a valid measure of fatigue. Higher numbers for the score are indicative of greater fatigue. Within the Piper survey a pain measure is also recorded. Both pain and fatigue scores were measured at each of the clinical visits one week apart. Trained study personnel completed chart review. Analysis of serum concentrations of methadone was completed at the Bioanalytical Core Lab at the Arizona Health Science Center (Sarver Heart Center, University of Arizona, Tucson).

[2] = tested on: patients on chronic methadone therapy for pain; test: Piper survey for fatigue in chronic pain patients on methadone, with and without NAC
Procedure: as §1, §2, §3

[3] = tested on: Restless Legs Syndrome (RLS) subjects; test: Clinical use: relief of Restless Legs Syndrome symptoms; settings: clinical observation
Procedure: The blood levels of these patients measured below detection thresholds (20 ng/ml) and well below the blood levels recorded for pain relief (300 ng/ml). The NAC dose used in the present invention was far less than the 500 mg TID dose used as a supplement in treatment of diseases of inflammation.

[4] = tested on: patients with pain / restless legs syndrome; test: Case histories: NAC added to oral ketamine (pain diary, patient reports); settings: single patients; Case 1: NAC 25 mg, within 24 hours; Case 2: ketamine 150 mg/day
Procedure: The patient maintained a diary noting their level of pain with 1 being the lowest and 10 the highest. […] The patient was then administered 25 mg of NAC to be taken in combination with oral ketamine.

[5] = cases summarized and a few additional cases
[6] = on methadone without NAC (M001-M003 NAC stopped 7 days; M004-M006 baseline before NAC)

`CC(=O)N[C@@H](CS)C(=O)O` [NAC, N-acetyl-cysteine] was tested, and the “medication for pain when NAC is added to methadone” value [1, 5] was “reduction in medication for pain”, the opioid reduction ([1]; patient M004, after NAC added to methadone) was “subsequently; 30% opiod” and the “Comments: change on stopping NAC” value ([1]; patients M001-M003 on methadone, NAC stopped 7 days) was “Inc. irritabil; also recorded: Inc.pain/w”. The “Comments: patient report / clinical course after NAC added” value ([1]; patients M004-M006 on methadone, NAC added) was “Stopped all oxycondone; also recorded: “much less fatigue since starting; also recorded: “I do feel better taking NAC””, the “fatigue when NAC is added to methadone” value [2, 5] was “Improvement in fatigue” and the “Fatigue (yes/no)” value ([2]; on methadone with NAC, patients M001-M006) was “No”. The “Fatigue (yes/no)” value [2, 6] was “Yes and No”.

`CCC(=O)C(CC(C)N(C)C)(c1ccccc1)c1ccccc1` (stereo not shown) [Mtd, methadone] was tested, and the “Fatigue (yes/no)” value [2, 6] was “Yes”.

`COc1ccc2c(c1)[C@]13CCCC[C@@H]1[C@H](C2)N(C)CC3` [dextromethorphan] was tested, and the “symptoms of Restless Legs Syndrome (RLS)” value [3] was “treats restless legs syndrome”.

`CNC1(c2ccccc2Cl)CCCCC1=O` (stereo not shown) [ketamine] was tested, and the “pain relief (patient report)” value [4] was “noted pain relief”.

From US20080096872A1, “Composition for Treatment of Pain Specification” (priority 2004, published 2008)
